Data on four compounds can be found in BindingDB's records for doi:10.1021/bi300955k (Dalhousie University, 2012).

pKi: −log10 of the molar value.

The target of assay [1] is Cholinesterase (Homo sapiens, UniProt P06276). Kind of assay: Inhibition Assay. An excerpt: (§1) Inhibition constant using AChE or BuChE.
The target of assay [2] is Acetylcholinesterase (Homo sapiens, UniProt P22303). Kind of assay: Inhibition Assay.
Description: as §1

Sequence of Cholinesterase (P06276 whole entry): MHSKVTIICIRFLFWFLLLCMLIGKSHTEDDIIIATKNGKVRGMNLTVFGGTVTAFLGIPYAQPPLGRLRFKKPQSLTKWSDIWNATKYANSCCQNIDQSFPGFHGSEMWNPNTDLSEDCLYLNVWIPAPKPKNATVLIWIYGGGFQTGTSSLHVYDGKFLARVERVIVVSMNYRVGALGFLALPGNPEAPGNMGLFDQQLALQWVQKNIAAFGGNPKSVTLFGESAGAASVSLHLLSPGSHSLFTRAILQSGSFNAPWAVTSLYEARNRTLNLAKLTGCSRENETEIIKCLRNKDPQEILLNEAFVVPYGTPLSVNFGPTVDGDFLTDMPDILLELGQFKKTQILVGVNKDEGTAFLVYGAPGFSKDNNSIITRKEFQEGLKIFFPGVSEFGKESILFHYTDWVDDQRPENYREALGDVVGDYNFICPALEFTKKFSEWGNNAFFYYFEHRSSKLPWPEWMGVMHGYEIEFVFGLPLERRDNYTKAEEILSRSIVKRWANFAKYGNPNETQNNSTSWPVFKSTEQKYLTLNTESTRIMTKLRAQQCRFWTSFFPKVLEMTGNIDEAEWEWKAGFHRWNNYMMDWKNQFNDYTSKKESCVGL
Sequence of Acetylcholinesterase (P22303 whole entry): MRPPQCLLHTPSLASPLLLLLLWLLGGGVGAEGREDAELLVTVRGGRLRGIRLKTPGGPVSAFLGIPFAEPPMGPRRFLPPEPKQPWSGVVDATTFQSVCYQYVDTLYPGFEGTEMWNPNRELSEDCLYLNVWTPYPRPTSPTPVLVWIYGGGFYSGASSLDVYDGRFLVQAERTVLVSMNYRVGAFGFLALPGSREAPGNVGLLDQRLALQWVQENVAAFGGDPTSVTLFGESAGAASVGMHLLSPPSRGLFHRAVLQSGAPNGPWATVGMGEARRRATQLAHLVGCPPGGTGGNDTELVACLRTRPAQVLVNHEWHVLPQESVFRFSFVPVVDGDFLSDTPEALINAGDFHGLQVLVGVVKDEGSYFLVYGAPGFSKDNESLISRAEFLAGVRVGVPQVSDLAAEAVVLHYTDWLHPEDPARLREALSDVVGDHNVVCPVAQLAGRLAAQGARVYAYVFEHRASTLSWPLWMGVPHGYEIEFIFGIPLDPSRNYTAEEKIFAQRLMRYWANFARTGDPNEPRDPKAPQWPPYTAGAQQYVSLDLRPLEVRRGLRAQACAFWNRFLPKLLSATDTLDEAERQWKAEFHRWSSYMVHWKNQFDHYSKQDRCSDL

For the compound `CC[N+](C)(C)c1cccc(O)c1` [Edrophonium Chloride, 3], the pKi in assay [1] is 3.70.

On to `Cc1ccc2c(c1)sc(-c1ccc(N(C)C)cc1)[n+]2C` [Thioflavin T, 1], for which the pKi in assay [2] is 5.30; in assay [1], 5.44.

As for `O=C(c1c2ccccc2cc2ccccc12)N1c2ccccc2Sc2ccccc21` [Anthracen-9-yl (10H-phenothiazine-10yl) methanone, 5], the pKi in assay [1] is 7.80.

Take `CC(C)N(CCNC(=O)N1c2ccccc2Sc2ccccc21)C(C)C`: the pKi in assay [2] is 5.79; in assay [1], 7.68.
